Measured values reported in PubChem BioAssay AID248 (DTP/NCI, 2004).
Values joined by “and” are separate entries in the source; they are usually repeats but may differ in a detail not shown here. Equal entries are not always repeated. Inconclusive results and toxic doses are left out.

System: L1210 leukemia ip in BDF1 mice, survival T/C
Assay: NCI In Vivo Anticancer Drug Screen. Data for tumor model L1210 Leukemia (intraperitoneal) in B6D2F1 (BDF1) mice
Conditions: endpoint: mean survival time, higher = longer survival
Procedure, shortened: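 Survival endpoint. Drug-treated group vs vehicle group, expressed as T divided by C. Tumor passaged by transplantation.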

[1] = dose: 100.0 mg/kg/injection, schedule: Q01DX009 (ip), vehicle: saline
[2] = dose: 100.0 mg/kg/injection, schedule: Q04DX003 (ip), vehicle: saline
[3] = dose: 200.0 mg/kg/injection, schedule: Q01DX009 (ip), vehicle: saline
[4] = dose: 200.0 mg/kg/injection, schedule: Q04DX003 (ip), vehicle: saline
[5] = dose: 400.0 mg/kg/injection, schedule: Q01DX009 (ip), vehicle: saline
[6] = dose: 400.0 mg/kg/injection, schedule: Q04DX003 (ip), vehicle: saline
[7] = dose: 100.0 mg/kg/injection, schedule: Q01DX001 (ip), vehicle: saline
[8] = dose: 200.0 mg/kg/injection, schedule: Q01DX001 (ip), vehicle: saline
[9] = dose: 400.0 mg/kg/injection, schedule: Q01DX001 (ip), vehicle: saline
[10] = dose: 100.0 mg/kg/injection, schedule: Q04DX003 (ip), vehicle: Klucel (hydroxypropylcellulose) (HPC)
[11] = dose: 200.0 mg/kg/injection, schedule: Q04DX003 (ip), vehicle: Klucel (hydroxypropylcellulose) (HPC)
[12] = dose: 400.0 mg/kg/injection, schedule: Q04DX003 (ip), vehicle: Klucel (hydroxypropylcellulose) (HPC)
[13] = dose: 100.0 mg/kg/injection, schedule: Q04DX003 (ip), vehicle: saline with Tween-80
[14] = dose: 200.0 mg/kg/injection, schedule: Q04DX003 (ip), vehicle: saline with Tween-80

Structure (SMILES): COC(=O)C(N)CSC (stereo not given)
- T/C [1]: 101 % of control
- T/C [2]: 101 % of control
- T/C [3]: 98 % of control
- T/C [4]: 97 % of control
- T/C [5]: 95 % of control
- T/C [6]: 101 % of control

Structure (SMILES): NC(N)=Nc1ccc(C(=O)Nc2ccc([N+](=O)[O-])cc2)cc1
- T/C (dose: 50.0 mg/kg/injection, schedule: Q01DX009 (ip), vehicle: saline): 101 % of control
- T/C [1]: 94 % of control
- T/C [2]: 95 % of control
- T/C [3]: 90 % of control
- T/C [4]: 101 % of control
- T/C [6]: 97 % of control

Structure (SMILES): C=CCSc1nc(N)nc2c1ncn2C1CC(O)C(CO)O1 (stereo not given)
- T/C (dose: 100.0 mg/kg/injection, schedule: Q01DX005 (ip), vehicle: saline): 102 % of control
- T/C [1]: 102 % of control
- T/C (dose: 200.0 mg/kg/injection, schedule: Q01DX005 (ip), vehicle: saline): 104 % of control
- T/C [3]: 109 % of control
- T/C [5]: 109 % of control

Structure (SMILES): Cc1ccc(S(=O)(=O)c2ccccc2)cc1
- T/C [2]: 103 % of control
- T/C [4]: 91 % of control
- T/C [6]: 95 % of control

Structure (SMILES): O=NN1CCCCCCC1C(=O)O (stereo not given)
- T/C [7]: 102 % of control
- T/C [8]: 98 % of control
- T/C [9]: 102 % of control

Structure (SMILES): O=[N+]([O-])c1ccc(Oc2cccc(Cl)c2)c(Cl)c1
- T/C [7]: 112 % of control
- T/C [8]: 109 % of control
- T/C [9]: 105 % of control

Structure (SMILES): O=[N+]([O-])C(Cl)(Cl)C(Cl)(Cl)[N+](=O)[O-]
- T/C (dose: 2.5 mg/kg/injection, schedule: Q01DX009 (ip), vehicle: other): 97 % of control
- T/C (dose: 2.5 mg/kg/injection, schedule: Q04DX003 (ip), vehicle: other): 100 % of control
- T/C (dose: 5.0 mg/kg/injection, schedule: Q01DX001 (ip), vehicle: saline): 94 % of control
- T/C (dose: 5.0 mg/kg/injection, schedule: Q01DX009 (ip), vehicle: other): 95 % of control
- T/C (dose: 5.0 mg/kg/injection, schedule: Q04DX003 (ip), vehicle: other): 102 % of control
- T/C (dose: 10.0 mg/kg/injection, schedule: Q01DX001 (ip), vehicle: saline): 94 % of control
- T/C (dose: 10.0 mg/kg/injection, schedule: Q01DX009 (ip), vehicle: other): 90 % of control
- T/C (dose: 10.0 mg/kg/injection, schedule: Q04DX003 (ip), vehicle: other): 88 % of control
- T/C (dose: 20.0 mg/kg/injection, schedule: Q01DX001 (ip), vehicle: saline): 92 % of control
- T/C (dose: 40.0 mg/kg/injection, schedule: Q01DX001 (ip), vehicle: saline): 86 % of control
- T/C (dose: 80.0 mg/kg/injection, schedule: Q01DX001 (ip), vehicle: saline): 100 % of control

Structure (SMILES): CN(C)Cc1cc(C23CC4CC(CC(C4)C2)C3)cc(-c2ccccc2)c1O
- T/C (dose: 100.0 mg/kg/injection, schedule: Q04DX003 (ip), vehicle: acetone): 95 % of control
- T/C (dose: 200.0 mg/kg/injection, schedule: Q04DX003 (ip), vehicle: acetone): 98 % of control
- T/C (dose: 400.0 mg/kg/injection, schedule: Q04DX003 (ip), vehicle: acetone): 90 % of control

Structure (SMILES): COc1cc2c(cc1OC)-c1ncnc(-c3ccccc3)c1C2
- T/C [10]: 95 % of control
- T/C [11]: 94 % of control
- T/C [12]: 101 % of control

Structure (SMILES): O=C(Nc1ccc(C2=NCCN2)cc1)Nc1cc(C(=O)Nc2ccc(C3=NCCN3)cc2)ccc1C(=O)Nc1ccc(C2=NCCN2)cc1
- T/C (dose: 7.5 mg/kg/injection, schedule: Q01DX Z (oral), vehicle: saline): 107 % of control
- T/C (dose: 15.0 mg/kg/injection, schedule: Q01DX Z (ip), vehicle: saline): 241 % of control
- T/C (dose: 15.0 mg/kg/injection, schedule: Q01DX Z (oral), vehicle: saline): 105 % of control
- T/C (dose: 30.0 mg/kg/injection, schedule: Q01DX Z (oral), vehicle: saline): 103 % of control
- T/C (dose: 60.0 mg/kg/injection, schedule: Q01DX Z (oral), vehicle: saline): 102 % of control
- T/C (dose: 62.5 mg/kg/injection, schedule: Q01DX010 (oral), vehicle: saline): 95 % of control
- T/C (dose: 75.0 mg/kg/injection, schedule: Q01DX Z (oral), vehicle: saline): 95 % of control
- T/C (dose: 125.0 mg/kg/injection, schedule: Q01DX010 (oral), vehicle: saline): 110 % of control
- T/C (dose: 250.0 mg/kg/injection, schedule: Q01DX010 (oral), vehicle: saline): 108 % of control
- T/C (dose: 500.0 mg/kg/injection, schedule: Q01DX010 (oral), vehicle: saline): 97 % of control

Structure (SMILES): O=[N+]([O-])/C=C/c1ccccc1O
- T/C (dose: 6.25 mg/kg/injection, schedule: Q04DX003 (ip), vehicle: saline): 92 % of control
- T/C (dose: 12.5 mg/kg/injection, schedule: Q04DX003 (ip), vehicle: saline): 101 % of control
- T/C (dose: 25.0 mg/kg/injection, schedule: Q04DX003 (ip), vehicle: saline): 92 % of control

Structure (SMILES): c1ccc(-c2nn3c(-c4ccccc4)nnc3o2)cc1
- T/C (dose: 66.0 mg/kg/injection, schedule: Q01DX009 (ip), vehicle: saline with Tween-80): 90 % of control
- T/C [13]: 92 % of control
- T/C (dose: 150.0 mg/kg/injection, schedule: Q01DX009 (ip), vehicle: saline with Tween-80): 95 % of control
- T/C (dose: 200.0 mg/kg/injection, schedule: Q01DX009 (ip), vehicle: saline with Tween-80): 90 % of control
- T/C [14]: 93 % of control
- T/C (dose: 400.0 mg/kg/injection, schedule: Q01DX009 (ip), vehicle: saline with Tween-80): 164 % of control
- T/C (dose: 400.0 mg/kg/injection, schedule: Q04DX003 (ip), vehicle: saline with Tween-80): 92 % of control

Structure (SMILES): Cc1ccc(S(=O)(=O)NCc2cccc([N+](=O)[O-])c2)cc1
- T/C (dose: 100.0 mg/kg/injection, schedule: Q01DX001 (ip), vehicle: Klucel (hydroxypropylcellulose) (HPC)): 102 % of control
- T/C (dose: 200.0 mg/kg/injection, schedule: Q01DX001 (ip), vehicle: Klucel (hydroxypropylcellulose) (HPC)): 96 % of control
- T/C (dose: 400.0 mg/kg/injection, schedule: Q01DX001 (ip), vehicle: Klucel (hydroxypropylcellulose) (HPC)): 96 % of control

Structure (SMILES): c1ccc2c(c1)-c1cccc3cccc-2c13
- T/C (dose: 100.0 mg/kg/injection, schedule: Q01DX009 (ip), vehicle: Klucel (hydroxypropylcellulose) (HPC)): 95 % of control
- T/C [10]: 95 % of control
- T/C (dose: 200.0 mg/kg/injection, schedule: Q01DX009 (ip), vehicle: Klucel (hydroxypropylcellulose) (HPC)): 95 % of control
- T/C [11]: 95 % of control
- T/C (dose: 400.0 mg/kg/injection, schedule: Q01DX009 (ip), vehicle: Klucel (hydroxypropylcellulose) (HPC)): 101 % of control
- T/C [12]: 101 % of control

Structure (SMILES): O=C(O)/C=C/C(=O)Nc1cc(Cl)cc2c1-c1c(Cl)cc(Cl)cc1C2O (stereo not given)
- T/C [10]: 98 % of control
- T/C [11]: 92 % of control
- T/C [12]: 108 % of control

Structure (SMILES): CC1CP(=O)(Cc2ccccc2)C(C)(c2ccccc2)C1=O (stereo not given)
- T/C [10]: 93 % of control
- T/C [11]: 100 % of control
- T/C [12]: 100 % of control

Structure (SMILES): COC(=O)/C(Cl)=C(\Cl)C(=O)OC
- T/C (dose: 100.0 mg/kg/injection, schedule: Q01DX009 (ip), vehicle: saline with Tween-80): 95 % of control
- T/C [10]: 96 % of control
- T/C [13]: 102 % of control
- T/C [14]: 107 % of control

Structure (SMILES): CCCCCCCCCC(=O)N1CCCCC1C (stereo not given)
- T/C (dose: 25.0 mg/kg/injection, schedule: Q04DX002 (ip), vehicle: carboxymethylcellulose (CMC)): 97 % of control and 99 % of control
- T/C (dose: 50.0 mg/kg/injection, schedule: Q01DX001 (ip), vehicle: carboxymethylcellulose (CMC)): 93 % of control
- T/C (dose: 50.0 mg/kg/injection, schedule: Q01DX009 (ip), vehicle: carboxymethylcellulose (CMC)): 98 % of control and 103 % of control
- T/C (dose: 50.0 mg/kg/injection, schedule: Q04DX002 (ip), vehicle: carboxymethylcellulose (CMC)): 96 % of control and 97 % of control
- T/C (dose: 50.0 mg/kg/injection, schedule: Q04DX003 (ip), vehicle: carboxymethylcellulose (CMC)): 95 % of control
- T/C (dose: 100.0 mg/kg/injection, schedule: Q01DX001 (ip), vehicle: carboxymethylcellulose (CMC)): 93 % of control
- T/C (dose: 100.0 mg/kg/injection, schedule: Q01DX009 (ip), vehicle: carboxymethylcellulose (CMC)): 94 % of control and 100 % of control
- T/C (dose: 100.0 mg/kg/injection, schedule: Q04DX003 (ip), vehicle: carboxymethylcellulose (CMC)): 97 % of control
- T/C (dose: 200.0 mg/kg/injection, schedule: Q01DX001 (ip), vehicle: carboxymethylcellulose (CMC)): 96 % of control
- T/C (dose: 200.0 mg/kg/injection, schedule: Q01DX009 (ip), vehicle: carboxymethylcellulose (CMC)): 100 % of control and 104 % of control
- T/C (dose: 200.0 mg/kg/injection, schedule: Q04DX002 (ip), vehicle: carboxymethylcellulose (CMC)): 107 % of control and 92 % of control
- T/C (dose: 200.0 mg/kg/injection, schedule: Q04DX003 (ip), vehicle: carboxymethylcellulose (CMC)): 95 % of control
- T/C (dose: 400.0 mg/kg/injection, schedule: Q04DX002 (ip), vehicle: carboxymethylcellulose (CMC)): 103 % of control and 90 % of control
